Assay results: patent publication US10131652B2, “Pyrimidinyloxy benzene derivatives as herbicides” (E. I. DU PONT DE NEMOURS AND COMPANY, priority 2014, dated 2018)

Experiments:
Type in all cases: in vivo
[1] = test system: wheat (Triticum aestivum); experiment: Test B pre-/postemergence plant response; settings: 125 g ai/ha, postemergence; 0 to 100 scale, 0 no effect, 100 complete control
Source text: (§1) Seeds of plant species selected from bamyardgrass (Echinochloa crus-galli), kochia (Kochia scoparia), ragweed (common ragweed, Ambrosia elatior), Italian ryegrass (Lolium multiflorum), large (Lg) crabgrass (Digitaria sanguinalis), giant foxtail (Setaria faberii), momingglory (Ipomoea spp.), pigweed (Amaranthus retroflexus), velvetleaf (Abutilon theophrasti), wheat (Triticum aestivum), and corn (Zea mays) were planted into a blend of loam soil and sand and treated preemergence with a directed soil spray using test chemicals formulated in a non-phytotoxic solvent mixture which included a surfactant. At the same time, plants selected from these crop and weed species and also blackgrass (Alopecurus myosuroides), and galium (catchweed bedstraw, Galium aparine) were planted in pots containing the same blend of loam soil and sand and treated with postemergence applications of test chemicals formulated in the same manner. Plants ranged in height from 2 to 10 cm and were in the one- to two-leaf stage for the postemergence treatment. Treated plants and untreated controls were maintained in a greenhouse for approximately 10 days, after which time all treated plants were compared to untreated controls and visually evaluated for injury. Plant response ratings, summarized in Table B, are based on a 0 to 100 scale where 0 is no effect and 100 is complete control. A dash (-) response means no test result.

kochia (Kochia scoparia) = experiment: Test B pre-/postemergence plant response; settings: for Kochia plant response rating: 0 to 100 scale (0 no effect, 100 complete control)
Source text: as §1

[2] = test system: ragweed (common ragweed, Ambrosia elatior); experiment: Test B pre-/postemergence plant response; settings: for Ragweed plant response rating: 0 to 100 scale (0 no effect, 100 complete control)
Source text: as §1

[3] = test system: pigweed (Amaranthus retroflexus); experiment: Test B pre-/postemergence plant response; settings: for Pigweed plant response rating: 0 to 100 scale (0 no effect, 100 complete control)
Source text: as §1

[4] = test system: Italian ryegrass (Lolium multiflorum); experiment: Test B pre-/postemergence plant response; settings: for Ryegrass, Italian plant response rating: 0 to 100 scale (0 no effect, 100 complete control)
Source text: as §1

corn (Zea mays) = experiment: Test B pre-/postemergence plant response; settings: 0 to 100 scale, 0 no effect, 100 complete control
Source text: as §1

[5] = test system: barnyardgrass (Echinochloa crus-galli); experiment: Test B pre-/postemergence plant response; settings: for Barnyardgrass plant response rating: 0 to 100 scale (0 no effect, 100 complete control)
Source text: as §1

[6] = test system: giant foxtail (Setaria faberii); experiment: Test B pre-/postemergence plant response; settings: for Foxtail, Giant plant response rating: 0 to 100 scale (0 no effect, 100 complete control)
Source text: as §1

[7] = test system: blackgrass (Alopecurus myosuroides); experiment: Test B postemergence plant response; settings: 0 to 100 scale, 0 no effect, 100 complete control
How it was run: (§2)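 Pots, loam soil + sand; postemergence treatment at 1–2 leaf stage, 2–10 cm; greenhouse ~10 d; visual injury score 0 (none) to 100 (complete control) relative to untreated controls.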

[8] = test system: galium (catchweed bedstraw, Galium aparine); experiment: Test B postemergence plant response; settings: 125 g ai/ha, postemergence; 0 to 100 scale, 0 no effect, 100 complete control
How it was run: as §2

[9] = test system: ducksalad (Heteranthera limosa); experiment: Test C flooded paddy test plant response; settings: Flood, 250 g ai/ha; scale of 0 to 100 where 0 is no effect and 100 is complete control; 13 to 15 days
How it was run: (§3)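 Flooded-pot format, 3 cm water over soil maintained for the test duration; test compounds dispensed into the water at the 2-leaf stage. Greenhouse holding 13 to 15 days. Plants evaluated visually relative to untreated controls, 0 meaning no effect and 100 complete control.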

[10] = test system: small-flower umbrella sedge (Cyperus difformis); experiment: Test C flooded paddy test plant response; settings: Flood, 250 g ai/ha; scale of 0 to 100 where 0 is no effect and 100 is complete control; 13 to 15 days
How it was run: as §3

[11] = test system: barnyardgrass (Echinochloa crus-galli); experiment: Test C flooded paddy test plant response; settings: Flood, 250 g ai/ha; scale of 0 to 100 where 0 is no effect and 100 is complete control; 13 to 15 days
How it was run: as §3

rice (Oryza sativa) = experiment: Test C flooded paddy test plant response; settings: Flood, 250 g ai/ha; scale of 0 to 100 where 0 is no effect and 100 is complete control; 13 to 15 days
How it was run: as §3

[12] = 31 g ai/ha, Preemergence, 0 to 100 scale where 0 is no effect and 100 is complete control
[13] = 125 g ai/ha, postemergence, 0 to 100 scale, 0 no effect, 100 complete control
[14] = 31 g ai/ha, Postemergence, 0 to 100 scale, 0 no effect, 100 complete control

Structure (SMILES) | Plant response rating, Wheat [1] | Plant response rating, Kochia (kochia (Kochia scoparia); [12]) | Plant response rating, Kochia (kochia (Kochia scoparia); [13]) | Kochia plant response rating (kochia (Kochia scoparia); Preemergence, 125 g ai/ha) | Plant response rating, Ragweed [2, 12] | Plant response rating, Ragweed [2, 13] | Ragweed plant response rating ([2]; Preemergence, 125 g ai/ha) | Plant response rating, Pigweed [3, 12] | Plant response rating, Pigweed [3, 13] | Pigweed plant response rating ([3]; Preemergence, 125 g ai/ha) | Plant response rating, Ryegrass, Italian [4, 12] | Plant response rating, Ryegrass, Italian [4, 13] | Ryegrass, Italian plant response rating ([4]; Preemergence, 125 g ai/ha) | Plant response rating, Corn (corn (Zea mays); 31 g ai/ha, Postemergence) | Plant response rating, Corn (corn (Zea mays); 125 g ai/ha, postemergence) | Plant response rating, Barnyardgrass [5, 14] | Plant response rating, Barnyardgrass [5, 12] | Plant response rating, Barnyardgrass [5, 13] | Barnyardgrass plant response rating ([5]; Preemergence, 125 g ai/ha) | Plant response rating, Foxtail, Giant [6, 14] | further results
FC(F)(F)COCc1cc(-c2ccccc2Oc2ncc(Br)cn2)on1 [Compound 129] | 0 | 0 | 10 | 0 | 0 | 0 | 0 | 0 | 30 | 0 | 0 | 0 | 0 | 0 | 10 | 0 | 0 | 10 | 0 | 0 | Plant response rating, Foxtail, Giant [6, 12]: 0; Plant response rating, Foxtail, Giant [6, 13]: 10; Foxtail, Giant plant response rating ([6]; Preemergence, 125 g ai/ha): 0; Plant response rating, Blackgrass ([7]; 31 g ai/ha, Postemergence): 0; Plant response rating, Blackgrass ([7]; 125 g ai/ha, postemergence): 0; Plant response rating, Galium [8]: 10; Ducksalad plant response rating [9]: 0; Sedge, Umbrella plant response rating [10]: 0; Barnyardgrass plant response rating [11]: 0; Rice plant response rating (rice (Oryza sativa)): 0
FC(F)Oc1cccc(Oc2ncc(Cl)cn2)c1-c1cc(C(F)F)no1 [Compound 132] | 10 | 0 | 60 | 0 | 0 | 30 | 40 | 90 | 100 | 100 | 0 | 40 | 30 | 10 | 30 | 20 | 20 | 50 | 60 | 30 | Plant response rating, Foxtail, Giant [6, 12]: 60; Plant response rating, Foxtail, Giant [6, 13]: 70; Foxtail, Giant plant response rating ([6]; Preemergence, 125 g ai/ha): 90; Plant response rating, Blackgrass ([7]; 31 g ai/ha, Postemergence): 20; Plant response rating, Blackgrass ([7]; 125 g ai/ha, postemergence): 50; Plant response rating, Galium [8]: 90; Ducksalad plant response rating [9]: 40; Sedge, Umbrella plant response rating [10]: 75; Barnyardgrass plant response rating [11]: 30; Rice plant response rating (rice (Oryza sativa)): 20
FC(c1cc(-c2ccccc2Oc2ncc(Cl)cn2)no1)C(F)(F)F (stereo not drawn) [Compound 133] | 10 | 50 | 90 | 90 | 0 | 30 | 10 | 90 | 100 | 100 | 0 | 30 | 50 | 10 | 30 | 20 | 30 | 60 | 70 | 20 | Plant response rating, Foxtail, Giant [6, 12]: 70; Plant response rating, Foxtail, Giant [6, 13]: 50; Foxtail, Giant plant response rating ([6]; Preemergence, 125 g ai/ha): 90; Plant response rating, Blackgrass ([7]; 31 g ai/ha, Postemergence): 30; Plant response rating, Blackgrass ([7]; 125 g ai/ha, postemergence): 70; Plant response rating, Galium [8]: 100; Ducksalad plant response rating [9]: 80; Sedge, Umbrella plant response rating [10]: 80; Barnyardgrass plant response rating [11]: 40; Rice plant response rating (rice (Oryza sativa)): 40
